US7342090B1, “Fab-epitope complex from the HIV-1 cross-neutralizing monoclonal antibody 2F5” (University of Toronto, priority 1999, dated 2008)
Square brackets hold non-standard residues; d marks the D form. Ends that are not written are not given here. Dap = NC[C@H](N)C(=O)O

Tested on: monoclonal antibody 2F5
Assay: Immuno-complex formation of constrained peptides with monoclonal antibody 2F5
Type: binding, human
Details: subsequently co-crystallized with the Fab′ fragment

monoclonal antibody 2F5, sequence (as listed by the source, other chains not shown): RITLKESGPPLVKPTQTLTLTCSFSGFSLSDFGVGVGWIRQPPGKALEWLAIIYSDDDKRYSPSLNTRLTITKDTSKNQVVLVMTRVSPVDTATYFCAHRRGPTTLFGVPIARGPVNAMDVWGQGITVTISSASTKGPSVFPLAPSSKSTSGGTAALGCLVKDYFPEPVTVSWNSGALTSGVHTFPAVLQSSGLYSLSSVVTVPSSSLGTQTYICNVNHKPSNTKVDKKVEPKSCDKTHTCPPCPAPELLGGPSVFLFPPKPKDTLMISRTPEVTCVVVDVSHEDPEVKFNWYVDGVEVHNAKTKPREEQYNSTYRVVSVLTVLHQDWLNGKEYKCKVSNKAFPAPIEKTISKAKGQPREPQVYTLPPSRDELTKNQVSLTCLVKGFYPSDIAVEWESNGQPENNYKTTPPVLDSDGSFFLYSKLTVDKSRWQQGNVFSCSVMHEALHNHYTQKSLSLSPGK

| Substance | formation of an immuno-complex with monoclonal antibody 2F5 |
| --- | --- |
| ECDKWCS [CLP-634] | capable of forming an immuno-complex |
| E[Dap]DKWES [CLP-1309] | capable of forming an immuno-complex |
